{"source": "patent US9879036B2", "about": "“Mitochondrial aldehyde dehydrogenase-2 binding compounds and methods of use thereof” (Aviv Therapeutics, Inc., priority 2014, dated 2018)", "key": {"PAD wild type mice": {"test_system": "PAD wild type mice", "assay": "Limb ischemia model for peripheral arterial disease (PAD)", "type": "in vivo", "details": "osmotic pump for 28 days", "protocol": "Mice are anesthetized and hair is entirely removed from the surgical area. A longitudinal incision is inguinal crease along the femoral vessels and the connective tissue sheet between the femoral artery and vein is carefully dissected. An opening between the femoral artery and vein is made and the femoral artery is occluded using triple surgical knots. The incision is then closed.\nThe animals under permanent femoral artery occlusion are treated with compounds of formula (I) and the effects of the compounds on functional capacity is assessed in mice using treadmill exercise in a metabolic chamber.\nThe limb ischemia-murine animal model was utilized as a surrogated model for peripheral arterial disease as described in Nature Protocols, 4, 1737-1748 (2009). (Limbourg, A., et. als., Evaluation of postnatal arteriogenesis and angiogenesis in a mouse model of hind-limb ischemia, Nature Protocols, 4, 1737-1748 (2009)). All experiments were run according to national and institutional regulations concerning the use of animals for research purposes and permissions to carry out experiments have to be obtained.\n(§1) The animals, WT mice age 18-22 weeks, were anesthetized with an intraperitoneal (IP) injection of esketamine (100 mg/ml) dose 80-100 mg/kg and xylazine (20 mg/ml) dose 4-6 mg/kg. Hair was entirely removed from the surgical area and a longitudinal incision was made beginning at the inguinal crease along the femoral vessels. The connective tissue sheet between the femoral artery and vein was then carefully dissected and an opening between the femoral artery and vein was made. Artery ligation thread was then used to occlude the femoral artery using triple surgical knots. The incision was then closed and the animals were administered a single dose of buprenorphine (0.1 mg/kg) subcutaneously to control ischemic pain.\n(§2) The animals under permanent femoral artery occlusion at day zero, were treated with ALDH2 activators, Alda-1 and AC112, via osmotic pump for 28 days. The effects of the compounds of the present invention on functional capacity were assessed in mice using treadmill exercise in a metabolic chamber."}, "ALDH2 [1]": {"target": "T1, ALDH2 (Mus musculus, UniProt P47738)", "T1 construct": "In this study we have also determined the ALDH2 activity in muscle tissue; from tissue; host or cells: skeletal muscle of WT mice with femoral artery occlusion", "T1 sequence (P47738 20-519)": "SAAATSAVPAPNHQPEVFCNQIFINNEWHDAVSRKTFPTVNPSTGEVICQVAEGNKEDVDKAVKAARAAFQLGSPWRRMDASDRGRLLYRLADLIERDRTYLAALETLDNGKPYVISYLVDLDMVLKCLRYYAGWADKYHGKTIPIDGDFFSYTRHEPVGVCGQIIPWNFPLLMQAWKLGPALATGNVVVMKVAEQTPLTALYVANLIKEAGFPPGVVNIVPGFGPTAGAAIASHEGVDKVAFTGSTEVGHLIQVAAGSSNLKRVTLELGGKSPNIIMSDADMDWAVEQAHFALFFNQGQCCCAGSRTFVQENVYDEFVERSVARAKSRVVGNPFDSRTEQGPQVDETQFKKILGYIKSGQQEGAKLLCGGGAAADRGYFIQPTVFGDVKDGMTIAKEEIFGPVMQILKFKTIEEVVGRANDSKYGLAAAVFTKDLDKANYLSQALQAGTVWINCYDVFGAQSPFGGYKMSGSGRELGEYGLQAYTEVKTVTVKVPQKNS", "assay": "ALDH2 activity of muscle tissue in PAD mice", "type": "in vivo", "details": "osmotic pump for 28 days", "protocol": "as §1, §2\nIn this study we have also determined the ALDH2 activity in muscle tissue."}, "ALDH2 [2]": {"target": "T2, ALDH2 (Homo sapiens, UniProt P05091)", "T2 construct": "His-tag (N); made in house; host or cells: E. coli BL21", "T2 sequence (P05091 18-517)": "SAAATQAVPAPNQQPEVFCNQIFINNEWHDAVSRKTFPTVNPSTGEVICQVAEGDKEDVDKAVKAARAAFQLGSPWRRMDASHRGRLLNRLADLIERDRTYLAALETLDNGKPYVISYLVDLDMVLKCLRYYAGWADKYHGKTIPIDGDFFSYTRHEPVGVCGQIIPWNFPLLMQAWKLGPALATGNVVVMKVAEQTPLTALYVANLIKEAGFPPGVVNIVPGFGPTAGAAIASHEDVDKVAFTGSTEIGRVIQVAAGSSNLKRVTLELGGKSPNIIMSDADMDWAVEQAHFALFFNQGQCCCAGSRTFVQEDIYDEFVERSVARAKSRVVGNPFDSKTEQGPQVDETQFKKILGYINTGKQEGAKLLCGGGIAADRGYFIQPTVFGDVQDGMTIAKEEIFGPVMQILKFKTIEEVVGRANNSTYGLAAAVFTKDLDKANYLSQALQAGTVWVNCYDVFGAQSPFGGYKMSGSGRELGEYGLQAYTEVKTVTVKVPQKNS", "assay": "ALDH2 activity with 20 μM of the compound (Table 3)", "type": "biochemical", "details": "20 μM compound", "outline": "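Compound was tested at 20 μM. ALDH2 oxidation of acetaldehyde with NAD+ cofactor was followed spectrophotometrically as NADH accumulation at 340 nm. Activity is expressed relative to the enzyme's baseline activity, taken as 100%.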"}}, "data": [{"smiles": "COc1ccc(CNC(=O)c2cc(-c3ncccc3CO)ccc2OCC(C)C)cc1F", "note": "[AC112]", "values": [{"measurement": "pain threshold", "setting": "PAD wild type mice", "result": "improve pain threshold"}, {"measurement": "skeletal muscle resistance to fatigue (contractility measured ex vivo)", "setting": "PAD wild type mice", "result": "improve the skeletal muscle resistance to fatigue"}, {"measurement": "PAD-induced skeletal muscle atrophy", "setting": "PAD wild type mice; WT mice", "result": "minimizes PAD-induced skeletal muscle atrophy"}, {"measurement": "running distance", "setting": "PAD wild type mice; treadmill", "result": "improve"}, {"measurement": "running time", "setting": "PAD wild type mice; treadmill", "result": "improve"}, {"measurement": "ALDH2 activity of muscle tissue", "setting": "ALDH2 [1]", "result": "increased the ALDH2 activity of muscle tissue"}, {"measurement": "activity at 20 µM", "setting": "ALDH2 [2]", "result": "> 250", "unit": "%"}]}]}
